Test results reported in US20250051327A1, “MALT-1 MODULATORS” (EXSCIENTIA AI LIMITED, priority 2020, published 2025).
pIC50: −log10 of the molar value.

Legend:
[1] = test system: IL-2 secretion by human effector memory T cells (TEM); assay: Effector memory T cells IL-2 release assay; assay type: cell-based; conditions: T-cell; human CD4+ effector memory T cells, CD3/CD28 bead stimulation, 24 h; read-out: CD4TC IL2 IC50
In short: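 Human CD4+ effector memory T cells from healthy-donor buffy coats were stimulated with anti-CD3/CD28 Dynabeads and exposed to 10 semi-log compound doses (0.1% DMSO) for 24 h at 37 °C. Supernatant IL-2 was measured by HTRF, and IC50 came from a 4-parameter logistic fit to maximal IL-2. Viability was checked by flow cytometry.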

[2] = molecular target: Recombinant human MALT-1 (amino acids 340-824) (Homo sapiens (Human), UniProt Q9UDY8); assay: MALT-1 inhibition assay (fluorogenic substrate Ac-LRSR-Rh110-DP); assay type: biochemical; conditions: recombinant human MALT-1, substrate Ac-LRSR-Rh110-DP
Chain of Recombinant human MALT-1 (amino acids 340-824) (Q9UDY8 340-824): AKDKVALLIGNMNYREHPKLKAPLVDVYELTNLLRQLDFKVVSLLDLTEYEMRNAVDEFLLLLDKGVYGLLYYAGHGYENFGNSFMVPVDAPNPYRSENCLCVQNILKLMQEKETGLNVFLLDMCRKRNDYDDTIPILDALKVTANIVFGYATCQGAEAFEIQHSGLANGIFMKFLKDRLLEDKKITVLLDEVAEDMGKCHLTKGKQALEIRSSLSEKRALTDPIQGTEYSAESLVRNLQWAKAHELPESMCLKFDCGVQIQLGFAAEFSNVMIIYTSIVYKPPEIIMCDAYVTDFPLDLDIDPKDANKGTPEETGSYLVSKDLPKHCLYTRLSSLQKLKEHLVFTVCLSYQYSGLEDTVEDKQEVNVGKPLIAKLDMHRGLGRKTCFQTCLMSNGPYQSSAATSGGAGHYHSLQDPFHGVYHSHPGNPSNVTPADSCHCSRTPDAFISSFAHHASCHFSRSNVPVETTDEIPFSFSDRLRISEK
In short: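 MALT-1 at 3 nM final was reacted with 10 μM Ac-LRSR-Rh110-DP, with substrate addition starting the reaction. Incubation ran 60 minutes at 25° C in the dark. Percent inhibition from fluorescence across doses was fitted to a 4-parameter logistic to give IC50.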

| Structure (SMILES) | pIC50 [1] | pIC50 [2] |
| --- | --- | --- |
| CN(C(=O)[C@H]1CC[S@+]([O-])CC1)[C@@H](c1ccc(N2CCC3(CC3)c3c2cnc2cc(F)nn32)cc1)C(F)(F)F (relative stereo) [CPD0072933, (1rel-r,4rel-r)-N-methyl-1-oxo-N-[(1S)-2,2,2-trifluoro-1-(4-{4′-fluoro-2′,3′,7′,10′-tetraazaspiro[cyclopropane-1,13′-tricyclo[7.4.0.0^2,6]tridecane]-1′(9′),3′,5′,7′-tetraen-10′-yl}phenyl)ethyl]-1λ^4-thiane-4-carboxamide] | 7.24 | 7.48 |
| COc1ccc2ncc(Nc3ccc([C@H](N(C)C(=O)[C@H]4CC[S@@](=N)(=O)CC4)C(F)(F)F)cc3)c([C@H](C)OC)c2n1 (stereo in doubt) [CPD0073129, (1 rel-s,4rel-s)-1-imino-N-methyl-1-oxo-N-[(1S)-2,2,2-trifluoro-1-[4-({6-methoxy-4-[(1 rel-S)-1-methoxyethyl]-1,5-naphthyridin-3-yl}amino)phenyl]ethyl]-1λ^6-thiane-4-carboxamide] | 7.44 | 7.19 |
| CN(C(=O)[C@H]1CC[S@](=N)(=O)CC1)[C@@H](c1ccc(N2CCC(C)(C)c3c2cnc2cc(Cl)nn32)cc1)C(F)(F)F (relative stereo) [CPD0072785, (1rel-r,4rel-r)-N-[(1S)-1-(4-{4-chloro-13,13-dimethyl-2,3,7,10-tetraazatricyclo[7.4.0.0^2,6]trideca-1(9),3,5,7-tetraen-10-yl}phenyl)-2,2,2-trifluoroethyl]-1-imino-N-methyl-1-oxo-1λ^6-thiane-4-carboxamide] | 7.29 | 7.12 |
| Cc1ncc(C(=O)N(C)[C@@H](c2ccc(N3CCCc4c3cnc3cc(Cl)nn43)cc2)C(F)(F)F)n1C [CPD0019346, N-[(1S)-1-(4-{4-chloro-2,3,7,10-tetraazatricyclo[7.4.0.0^2,6]trideca-1(9),3,5,7-tetraen-10-yl}phenyl)-2,2,2-trifluoroethyl]-N,1,2-trimethyl-1H-imidazole-5-carboxamide] | 6.14 | 6.27 |
| C[C@@H]1CCN(c2ccc([C@H](N(C)C(=O)[C@H]3CC[S@@](=N)(=O)CC3)C(F)(F)F)cc2)c2cnc3cc(F)nn3c21 (relative stereo) [CPD0074556, (1rel r, 4rel r)1-imino-N-methyl-1-oxo-N-[(1S)-2,2,2-trifluoro-1-[4-[(13 rel R)-4-fluoro-13-methyl-2,3,7,10-tetrazatricyclo[7.4.0.0^2,6]trideca-1(9),3,5,7-tetraen-10-yl]phenyl]ethyl]thiane-4-carboxamide] | 6.77 | 7.21 |
| CN(C(=O)CC#N)[C@@H](c1ccc(N2CCCc3c2cnc2cc(Cl)nn32)cc1)C(F)(F)F [CPD0019342, N-[(1S)-1-(4-{4-chloro-2,3,7,10-tetraazatricyclo[7.4.0.0^2,6]trideca-1(9),3,5,7-tetraen-10-yl}phenyl)-2,2,2-trifluoroethyl]-2-cyano-N-methylacetamide] | 7.02 | 6.77 |
| COc1cc([C@H](N(C)C(=O)C2CCS(=O)(=O)CC2)C(F)(F)F)ccc1N1CCCc2c1cnc1cc(Cl)nn21 [CPD0073040, N-[(1S)-1-(4-{4-chloro-2,3,7,10-tetraazatricyclo[7.4.0.0^2,6]trideca-1(9),3,5,7-tetraen-10-yl}-3-methoxyphenyl)-2,2,2-trifluoroethyl]-N-methyl-1,1-dioxo-1λ^6-thiane-4-carboxamide] | 6.19 | 6.43 |
| CN=[S@]1(=O)CC[C@H](C(=O)N(C)[C@@H](c2ccc(N3CCCc4c3cnc3cc(Cl)nn43)cc2)C(F)(F)F)CC1 (relative stereo) [CPD0072531, (1rel-R,4rel-R)—N-[(1S)-1-(4-{4-chloro-2,3,7,10-tetraazatricyclo[7.4.0.0^2,6]trideca-1(9),3,5,7-tetraen-10-yl}phenyl)-2,2,2-trifluoroethyl]-N-methyl-1-(methylimino)-1-oxo-1λ^e-thiane-4-carboxamide] | 6.85 | 7.42 |
| CN(C(=O)CO)[C@@H](c1ccc(N2CCCc3c2cnc2cc(Cl)nn32)cc1)C(F)(F)F [CPD0019341, N-[(1S)-1-[4-(4-chloro-2,3,7,10-tetrazatricyclo[7.4.0.0^2,6]trideca-1(9),3,5,7-tetraen-10-yl)phenyl]-2,2,2-trifluoro-ethyl]-2-hydroxy-N-methyl-acetamide] | 6.98 | 6.70 |
| CN([C@@H](c1ccc(N2CCCc3c2cnc2cc(Cl)nn32)cc1)C(F)(F)F)S(C)(=O)=O [CPD0021581, N-[(1S)-1-(4-{4-chloro-2,3,7,10-tetraazatricyclo[7.4.0.0^2,6]trideca-1(9),3,5,7-tetraen-10-yl}phenyl)-2,2,2-trifluoroethyl]-N-methylmethanesulfonamide] | 6.27 | 6.43 |
| Cc1nn(C)cc1C(=O)N(C)[C@@H](c1ccc(N2CCCc3c2cnc2cc(Cl)nn32)cc1)C(F)(F)F [CPD0019347, N-[(1S)-1-(4-{4-chloro-2,3,7,10-tetraazatricyclo[7.4.0.0^2,6]trideca-1(9),3,5,7-tetraen-10-yl}phenyl)-2,2,2-trifluoroethyl]-N,1,3-trimethyl-1H-pyrazole-4-carboxamide] | 6.88 | 6.61 |
| CN=[S@]1(=O)CC[C@@H](C(=O)N(C)[C@@H](c2ccc(N3CCCc4c3cnc3cc(Cl)nn43)cc2)C(F)(F)F)CC1 (relative stereo) [CPD0072530, (1rel-S,4rel-S)—N-[(1S)-1-(4-{4-chloro-2,3,7,10-tetraazatricyclo[7.4.0.0^2,6]trideca-1(9),3,5,7-tetraen-10-yl}phenyl)-2,2,2-trifluoroethyl]-N-methyl-1-(methylimino)-1-oxo-1λ^e-thiane-4-carboxamide] | 6.90 | 7.23 |
| COc1ccc2ncc(Nc3ccc([C@H](N(C)C(=O)[C@H]4CC[S@](=N)(=O)CC4)C(F)(F)F)cc3)c([C@@H](C)OC)c2n1 [CPD0075563] | 6.59 | 6.99 |
| COCC(=O)N1CC[C@@H](C(=O)N(C)[C@@H](c2ccc(N3CCCc4c3cnc3cc(Cl)nn43)cc2)C(F)(F)F)C1 (relative stereo) [CPD0075875, (3rel-S)-N-[(1S)-1-[4-(4-chloro-2,3,7,10-tetrazatricyclo[7.4.0.0^2,6]trideca-1(9),3,5,7-tetraen-10-yl)phenyl]-2,2,2-trifluoro-ethyl]-1-(2-methoxyacetyl)-N-methyl-pyrrolidine-3-carboxamide] | 6.94 | 7.07 |
| COc1ccc2ncc(Nc3ccc([C@H](N(C)C(=O)[C@H]4CC[S@@](=N)(=O)CC4)C(F)(F)F)cc3)c([C@@H](C)OC)c2n1 [CPD0075564] | 6.76 | 7.05 |
| CN(C(=O)[C@H]1CC[S@](=N)(=O)CC1)[C@@H](c1ccc(N2CCC(C)(C)c3c2cnc2cc(F)nn32)cc1)C(F)(F)F (relative stereo) [CPD0072783, (1rel-r,4rel-r)-1-imino-N-methyl-1-oxo-N-[(1S)-2,2,2-trifluoro-1-(4-{4′-fluoro-2′,3′,7′,10′-tetraazaspiro[cyclopropane-1,13′-tricyclo[7.4.0.0^2,6]tridecane]-1′(9′),3′,5′,7′-tetraen-10′-yl}phenyl)ethyl]-1λ^6-thiane-4-carboxamide] | 6.94 | 7.20 |
